Reference: patent US9308215B2, “Avermectins and milbemycins as anti-mycobacterial agents” (priority 2013, dated 2016)
Values after ≈ are worked out from the molar mass of the structure shown. Like-named read-outs stand apart in the source and are kept apart here.

Legend:
[1] = Cats, cited from earlier work
[2] = rats; cited from earlier work
M. aurum = assay: MIC against mycobacterial species; type: cell-based; settings: Mycolicibacterium aurum
E. coli = assay: microbe, parasite or virus in culture; type: cell-based, Escherichia coli; settings: Escherichia coli, read-out: In vitro MIC90
R. jostii = assay: microbe, parasite or virus in culture; type: cell-based, Rhodococcus jostii; settings: Rhodococcus jostii, read-out: In vitro MIC90
M. chelonae = assay: MIC against mycobacterial species; type: cell-based; settings: Mycobacteroides chelonae
[3] = cited from earlier work
[4] = 12 mg/kg oral, cited from earlier work
M. smegmatis = assay: microbe, parasite or virus in culture; type: cell-based, Mycobacterium smegmatis; settings: Mycolicibacterium smegmatis, MC^2155, read-out: In vitro MIC90
M. tuberculosis = assay: microbe, parasite or virus in culture; type: cell-based, Mycobacterium tuberculosis; settings: for MIC90: Mycobacterium tuberculosis
[5] = Rats, 10 mg/kg oral; cited from earlier work
M. gordonae = assay: MIC against mycobacterial species; type: cell-based; settings: Mycobacterium gordonae
M. bovis BCG = assay: microbe, parasite or virus in culture; type: cell-based, Mycobacterium bovis; settings: Mycobacterium tuberculosis variant bovis BCG, BCG, read-out: In vitro MIC90
M. avium = assay: MIC against mycobacterial species; type: cell-based, Mycobacterium avium; settings: Mycobacterium avium
[6] = cats; cited from earlier work
S. lividans = assay: microbe, parasite or virus in culture; type: cell-based, Streptomyces lividans; settings: Streptomyces lividans, read-out: In vitro MIC90
K. rhizophila = assay: microbe, parasite or virus in culture; type: cell-based, Kocuria rhizophila; settings: Kocuria rhizophila, read-out: In vitro MIC90
M. intracellulare = assay: MIC against mycobacterial species; type: cell-based; settings: Mycobacterium intracellulare
[7] = cited from earlier work; remark: listed apart in the source
[8] = system: M. tuberculosis H37Rv and mc25857 (an MDR isolate); type: cell-based, Mycobacterium tuberculosis
S. aureus = assay: microbe, parasite or virus in culture; type: cell-based, Staphylococcus aureus; settings: Staphylococcus aureus, ATCC25923, read-out: In vitro MIC90
A. baumannii = assay: microbe, parasite or virus in culture; type: cell-based, Acinetobacter baumannii; settings: Acinetobacter baumannii, ATCC1960, read-out: In vitro MIC90
P. aeruginosa = assay: microbe, parasite or virus in culture; type: cell-based, Pseudomonas aeruginosa; settings: Pseudomonas aeruginosa, read-out: In vitro MIC90
[9] = system: representative Gram-positive and Gram-negative bacteria; type: cell-based
M. phlei = assay: MIC against mycobacterial species; type: cell-based; settings: Mycolicibacterium phlei
[10] = cited from earlier work; remark: listed apart in the source

CO[C@H]1C[C@H](O[C@@H]2/C(C)=C/C[C@@H]3C[C@@H](C[C@]4(CC[C@H](C)[C@@H](C5CCCCC5)O4)O3)OC(=O)[C@@H]3C=C(C)/C(=N/O)[C@H]4OC/C(=C\C=C\[C@@H]2C)[C@]43O)O[C@@H](C)[C@@H]1O [Selamectin]
AUC ([1]; 24 mg/kg (topical)): 743.349 µg·h/mL | Cmax ([1]; 24 mg/kg (topical)): 5.513 µg/mL | AUC ([1]; 24 mg/kg oral): 1109.933 µg·h/mL | Cmax ([1]; 24 mg/kg oral): 11.929 µg/mL | LD50 [2]: > 1,600 mg/kg body weight | MIC (M. aurum): 1 mg/L (≈ 1.3 µM) | MIC90 (E. coli): > 256 mg/L | MIC90 (R. jostii): > 256 mg/L | MIC (M. chelonae): 2 mg/L (≈ 2.6 µM) | LD50 ([3]; mice): > 1,600 mg/kg body weight | dose well tolerated ([3]; mouse, in vivo): up to 300 mg/kg body weight | Cmax ([4]; Mouse (lung)): 7.5 µg/mL | AUC ([4]; Mouse (plasma)): 62.2857 µg·h/mL | Cmax ([4]; Mouse (plasma)): 3.714 µg/mL | MIC90 (M. smegmatis): 4 mg/L (≈ 5.19 µM) | activity in dose response curves compared to ivermectin and doramectin (M. tuberculosis; M. tuberculosis H37Rv and an MDR clinical isolate (FIG. 10)): increased activity | activity in dose response curves (M. tuberculosis; MDR clinical isolates BC-MDR2, BC-MDR3, BC-MDR4 and BC-MDR5 (FIG. 11)): consistently more active than ivermectin | MIC90 (M. tuberculosis; ERDMAN, read-out: In vitro MIC90, strain Erdman, WT): 2 mg/L (≈ 2.6 µM) | MIC90 (M. tuberculosis; read-out: In vitro MIC90, strain 1254, WT): 2 to 4 mg/L (≈ 2.6 to 5.19 µM) | MIC90 (M. tuberculosis; read-out: In vitro MIC90, strain BC-DS1 (drug-susceptible)): 2 mg/L (≈ 2.6 µM) | MIC90 (M. tuberculosis; read-out: In vitro MIC90, strain BC-DS3 (drug-susceptible)): 1 to 2 mg/L (≈ 1.3 to 2.6 µM) | MIC90 (M. tuberculosis; read-out: In vitro MIC90, strain BC-DS4 (drug-susceptible)): 1 to 2 mg/L (≈ 1.3 to 2.6 µM) | MIC90 (M. tuberculosis; read-out: In vitro MIC90, strain BC-DS5 (drug-susceptible)): 2 to 4 mg/L (≈ 2.6 to 5.19 µM) | MIC90 (M. tuberculosis; read-out: In vitro MIC90, strain CDC 1551, WT): 1 mg/L (≈ 1.3 µM) | sensitivity of the ivermectin-less-sensitive strains (M. tuberculosis; strains CI15072, CI12081, BC-MDR2, BC-DS4 and BC-DS5): unaffected | Cmax [5]: >1 µg/mL | T½ [5]: 10.3 h | MIC (M. gordonae): < 0.25 mg/L | MIC90 (M. bovis BCG): 4 mg/L (≈ 5.19 µM) | MIC (M. avium; ATCC25291, M. avium ATCC 25291): 16 mg/L (≈ 20.8 µM) | MIC (M. avium; M. avium 702): 64 mg/L (≈ 83.1 µM) | MIC (M. avium; M. avium 715): 128 mg/L (≈ 166 µM) | doses reported to be safe [6]: up to 24 mg/kg | MIC90 (S. lividans): > 256 mg/L | safe dose extrapolated to a 70 kg adult (from 24 mg/kg in cats and dogs): 1,680 mg | safe dose extrapolated to humans (from 40 mg/kg/day in dogs): 2,800 mg/day | MIC90 (K. rhizophila): > 256 mg/L | MIC (M. intracellulare; ATCC35761, M. intracellulare 1403 ATCC35761): 1 mg/L (≈ 1.3 µM) | MIC (M. intracellulare; M. intracellulare D673): 2 mg/L (≈ 2.6 µM) | MIC (M. intracellulare; M. intracellulare FM): 2 mg/L (≈ 2.6 µM) | MIC (M. intracellulare; M. intracellulare 1403 Trudeau): 1 mg/L (≈ 1.3 µM) | AUC ([7]; Dogs female, 6 mg/kg (topical)): 8.903 µg·h/mL | Cmax ([7]; Dogs female, 6 mg/kg (topical)): 0.02265 µg/mL | T½ ([7]; Dogs female, 6 mg/kg (topical)): 257.5 h | AUC ([7]; Dogs males, 6 mg/kg (topical)): 4.609 µg·h/mL | Cmax ([7]; Dogs males, 6 mg/kg (topical)): 0.01272 µg/mL | T½ ([7]; Dogs males, 6 mg/kg (topical)): 291.4 h | AUC ([7]; Dogs, 24 mg/kg (topical)): 15.229 µg·h/mL | Cmax ([7]; Dogs, 24 mg/kg (topical)): 0.0865 µg/mL | AUC ([7]; Dogs, 24 mg/kg oral): 227.901 µg·h/mL | Cmax ([7]; Dogs, 24 mg/kg oral): 7.63 µg/mL | T½ ([7]; Dogs, 24 mg/kg oral): 45.7 h | bactericidal profile ([8]; 21-day kill curves, various concentrations, H37Rv): strongest bactericidal profile | bactericidal or bacteriostatic ([8]; in vitro against M. tuberculosis, survival kinetics): Bactericidal | MIC90 (S. aureus): > 256 mg/L | MIC90 (A. baumannii): > 256 mg/L | MIC90 (P. aeruginosa): > 256 mg/L | Inhibitory effects [9]: not observed | MIC (M. phlei): 4 mg/L (≈ 5.19 µM) | oral dose found safe ([10]; 3-month repeated dose toxicity study in dogs): 40 mg/kg/day | doses reported to be safe ([10]; dogs): up to 24 mg/kg | toxicity in dogs lacking MDR1 P-glycoprotein / homozygous MDR1 mutation ([10]; ivermectin: extra-label use, selamectin, moxidectin: therapeutic doses): without any signs of toxicosis
